Source: patent publication US5733749A, “Glycerol phosphatase with stereo-specific activity” (priority 1995, dated 1998)
“Also recorded” adds a separate entry of the source.

Assays:
B. licheniformis D-GPase [1] = target: T1, B. licheniformis D-GPase (Bacillus licheniformis, UniProt Q65CZ1); test: GPase activity assay, substrate specificity (HPLC of glycerol or dephosphorylated compound); assay type: biochemical; settings: PNPP at 1.5 mM read at 420 nm
T1 construct: about 25 kDa by gel filtration
T1 sequence (Q65CZ1 1-216): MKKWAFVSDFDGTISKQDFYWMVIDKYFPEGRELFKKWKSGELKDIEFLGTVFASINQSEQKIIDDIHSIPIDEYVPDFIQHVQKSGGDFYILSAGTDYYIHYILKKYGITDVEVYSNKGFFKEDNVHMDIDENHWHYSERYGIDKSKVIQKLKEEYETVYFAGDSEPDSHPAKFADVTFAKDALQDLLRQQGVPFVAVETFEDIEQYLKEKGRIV
Description: (§1) GPase activity was measured by combining cell extract and the appropriate stereoisomer(s) (DL or L) of GP, incubating the mixture, terminating the reaction with acid, and determining the glycerol content by high-performance liquid chromatography (HPLC) analysis. Assay mixtures consisted of, in a total of 500 μl:25 mM MgCl2; 25-50 mM PIPES [piperazine-N,N'-bis(2-ethanesulfonic acid)], pH 7.1; 25-100 mM substrate; and the required volume of cell extract. Incubations were carried out at 37° C. for 30-150 min in microcentrifuge tubes, then 72 μl of 20% trichloroacetic acid (TCA) was added (2.5% final) to each tube to stop the reaction. The samples were spun in a microcentrifuge to remove any precipitate, and the supernatants were filtered through Supor-200 0.2 μm membrane filters (Gelman Sciences, Ann Arbor, Mich.) and analyzed for glycerol by HPLC. Assays for dephosphorylation of other compounds were also analyzed by HPLC (for the dephosphorylated compound) and carried out in the same way as the assays with GP as substrate. Assays for p-nitrophenyl phosphate (PNPP) hydrolysis were the same as with GP as substrate but were carried out with 1.5 mM PNPP in microtiter plates, and absorbance at 420 nm was used to measure the extent of hydrolysis of PNPP. Calf intestinal alkaline phosphatase was used as a standard to ensure that PNPP could be hydrolyzed under the conditions of the assay.
Glycerol in fermentation broths and assay mixtures was measured by HPLC. The mobile phase was 0.01N H2 SO4, run at a flow rate of 0.6 ml/min through an Aminex HPX-87H organic acids column (Bio-Rad, Hercules, Calif.), which was maintained at 65° C. Samples were injected by a model AS-100 autosampler, and chromatograms were printed by a model 3392A integrator; the detector was a model 1770 differential refractometer (all from Bio-Rad).
Upon the finding that a GPase was present in B. licheniformis extracts, the inventors sought to determine which GP isomers are dephosphorylated by the enzyme and whether some other common phosphorylated metabolites can also be accepted as substrates. Because the initial assays were conducted with DL-GP, which also contained a small amount of β-GP, the specificity of the enzyme was unclear. HPLC chromatograms of reactions were run with crude cell extract and either DL-GP, L-GP, or β-GP. […] The low activity with pure β-GP rules out the possibility that the activity seen in assays with DL-GP is due to the presence of β-GP as an impurity in the DL-GP preparation.

B. licheniformis D-GPase [2] = target: T1, B. licheniformis D-GPase; assay type: biochemical; settings: for Relative activity: chloride of the cation added at 25 mM
Description: as §1
L-GPases reported in the literature require divalent magnesium. Therefore, the inventors tested the effects of addition of the chlorides of three divalent cations: magnesium, manganese, and calcium (25 mM each).

threonine deaminase = settings: cited from earlier work
B. licheniformis D-GPase [3] = target: T1, B. licheniformis D-GPase; test: Effect of ADP and inorganic phosphate on D-GPase activity; assay type: biochemical
Description: GPase activity was measured by combining cell extract and the appropriate stereoisomer(s) (DL or L) of GP, incubating the mixture, terminating the reaction with acid, and determining the glycerol content by high-performance liquid chromatography (HPLC) analysis. Assay mixtures consisted of, in a total of 500 μl:25 mM MgCl2 ; 25-50 mM PIPES [piperazine-N,N'-bis(2-ethanesulfonic acid)], pH 7.1; 25-100 mM substrate; and the required volume of cell extract. Incubations were carried out at 37° C. for 30-150 min in microcentrifuge tubes, then 72 μl of 20% trichloroacetic acid (TCA) was added (2.5% final) to each tube to stop the reaction. The samples were spun in a microcentrifuge to remove any precipitate, and the supernatants were filtered through Supor-200 0.2 μm membrane filters (Gelman Sciences, Ann Arbor, Mich.) and analyzed for glycerol by HPLC. Assays for dephosphorylation of other compounds were also analyzed by HPLC (for the dephosphorylated compound) and carried out in the same way as the assays with GP as substrate. Assays for p-nitrophenyl phosphate (PNPP) hydrolysis were the same as with GP as substrate but were carried out with 1.5 mM PNPP in microtiter plates, and absorbance at 420 nm was used to measure the extent of hydrolysis of PNPP. Calf intestinal alkaline phosphatase was used as a standard to ensure that PNPP could be hydrolyzed under the conditions of the assay.
Assays that were analyzed for inorganic phosphate instead of glycerol were carried out using the procedure of Marsh, Biochim. […] Blanks were identical assays except without substrate.

[S. cerevisiae] α-GPase = Gancedo et al. 1968; cited from earlier work
carbonic anhydrase = settings: read-out: Km of carbonic anhydrase for carbon dioxide; cited from earlier work
β-galactosidase = settings: read-out: Km of β-galactosidase for lactose; cited from earlier work

## O=P(O)(O)OC(CO)CO [β-glycerophosphate]
B. licheniformis D-GPase [1]
  accepted as substrate / hydrolysis by D-GPase: does not accept

## [Mn+2] [Mn^2+]
B. licheniformis D-GPase [2]
  Relative activity: 0.53

## O=P(O)(O)OC[C@H](O)CO [L-α-glycerophosphate]
B. licheniformis D-GPase [1]
  accepted as substrate / hydrolysis by D-GPase: does not accept

## C[C@@H](O)[C@H](N)C(=O)O [threonine]
Threonine deaminase
  Km: ~5 mM

## Nc1ncnc2c1ncn2[C@@H]1O[C@H](COP(=O)(O)OP(=O)(O)O)[C@@H](O)[C@H]1O [ADP]
B. licheniformis D-GPase [3]; 9 mM ADP added to the assays
  effect on specificity and level of D-GPase activity: neither the specificity nor the level of activity of D-GPase was affected

## O=C(O)[C@H](O)COP(=O)(O)O [D-3-phosphoglyceric acid]
B. licheniformis D-GPase [1]
  accepted as substrate / hydrolysis by D-GPase: little or no hydrolysis; also recorded: does not accept

## O=P(O)(O)OC[C@@H](O)CO [D-GP, D-α-glycerophosphate]
[S. cerevisiae] α-GPase
  efficiency of α-GPase on D-GP relative to that on L-GP: 1/30

## O=C(CO)COP(=O)(O)O [dihydroxyacetone phosphate]
B. licheniformis D-GPase [1]; phosphate
  accepted as substrate / hydrolysis by D-GPase: little or no hydrolysis; also recorded: does not accept

## O=C=O [carbon dioxide]
Carbonic anhydrase
  Km: ~8 mM

## [Mg+2] [Mg^2+]
B. licheniformis D-GPase [2]
  Relative activity: 1.00

## O=P(O)(O)OC[C@H]1OC(O)[C@H](O)[C@@H](O)[C@@H]1O (some centres unmarked) [glucose-6-phosphate]
B. licheniformis D-GPase [1]
  accepted as substrate / hydrolysis by D-GPase: little or no hydrolysis; also recorded: does not accept

## OC[C@H]1O[C@@H](O[C@H]2[C@H](O)[C@@H](O)C(O)O[C@@H]2CO)[C@H](O)[C@@H](O)[C@H]1O (some centres unmarked) [lactose]
β-galactosidase
  Km: ~4 mM

## D-glyceraldehyde phosphate
B. licheniformis D-GPase [1]; phosphate
  accepted as substrate / hydrolysis by D-GPase: little or no hydrolysis; also recorded: does not accept

## O=P(O)(O)O [inorganic phosphate]
B. licheniformis D-GPase [3]; in the presence of 25 mM inorganic phosphate, in vitro hydrolysis of D-GP
  D-GPase activity retained: 75%
B. licheniformis D-GPase [3]; inorganic phosphate present in assays of B. licheniformis extracts
  inhibition of D-GPase activity: did not acutely inhibit

## [Ca+2] [Ca^2+]
B. licheniformis D-GPase [2]; 25 mM chloride
  inhibition of D-GPase activity by the cation: does not inhibit D-GPase activity
B. licheniformis D-GPase [2]
  Relative activity: 0.08
